Holding throughout (assay): NCI tumour cell line growth inhibition, 48 h
For assay [1], the system named is SF-295 CNS.
For assay [2], the system named is COLO 205 colon.
Assay [3] relates to HCT-116 colon.
In assay [4] the test system is PC-3 prostate.
Assay [5] relates to SR leukemia.
Assay [6] has as its system NCI-H522 lung.
Assay [7] deals with SF-539 CNS.
The test system of assay [8] is HOP-62 NSCLC.
Assay [9] has as its system UACC-62 melanoma.
Assay [10] has as its system SK-OV-3 ovarian.
Assay [11] concerns OVCAR-5 ovarian.
The test system of assay [12] is M14 melanoma.
The test system of assay [13] is SK-MEL-28 melanoma.
Assay [14] has as its system MDA-N.
Assay [15] has as its system NCI-H23 lung.
Assay [16] has as its system MDA-MB-435.
For assay [17], the system named is HL-60(TB) leukemia.
Assay [18] relates to UACC-257 melanoma.
Assay [19] has as its system HS 578T breast.

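Cells were grown in 96-well plates and exposed to each compound for 48 hours at five concentrations; endpoints were interpolated linearly between bracketing concentrations, or set to the highest concentration if not reached. At the TGI there is no net growth.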

For the molecule `COc1cc2c[n+](C)c3c4cc5c(cc4ccc3c2cc1OC)OCO5`, the TGI is 57.7 µM in [1]; 4.48 µM in assay [2]; 18.9 µM in [3]; over 100 µM in [4]; 22.8 µM in assay [5]; 2.06 µM in [6]. The TGI in assay [7] is 5.32 µM; in assay [8], 16.4 µM; in assay [9], 4.92 µM; in [10] it was 5.64 µM; in [11], 4.84 µM; in assay [12], over 88.1 µM. The TGI in assay [13] was over 82.4 µM; in [14] it was over 100 µM; in assay [15] it was 3.65 µM; in assay [16], over 100 µM; in assay [17], 22.5 µM; in [18] it was over 59.8 µM. The molecule further showed a TGI in assay [19] of over 100 µM.

With `Cc1ccc2c(c1)C(=O)/C(=N/Nc1ccc(Cl)cc1)CCO2`, the TGI in [1], in assay [2], in [3], in assay [4], in assay [5] and in [6] was over 100 µM in each case. For the same molecule, the TGI in [7], in [8], in [9], in [10], in [11] and in assay [12] was over 100 µM in each case. Moreover, the TGI in assay [13], in [14], in assay [15], in assay [16], in assay [17] and in assay [18] was over 100 µM throughout. In addition, the TGI in assay [19] is over 100 µM.

In the case of `COC(=O)C(Cc1c[nH]c2ccccc12)N=C1Nc2ccncc2S(=O)(=O)N1c1ccccc1` (stereo unspecified), the TGI was over 100 µM in [1]; 33.9 µM in [2]; over 100 µM in [3]; 54 µM in assay [4]; 42.1 µM in assay [5]; over 100 µM in assay [6]. Further, the TGI in assay [7] is 35 µM; in assay [8], over 100 µM; in assay [9], 58.2 µM; in assay [10] it was over 100 µM; in assay [11], over 100 µM; in assay [12], over 100 µM. Besides, the TGI in [13] was over 100 µM; in assay [14], over 100 µM; in [15], over 100 µM; in assay [16], 87.3 µM; in assay [17] it was 0.727 µM; in assay [18], over 100 µM. Further, the TGI in assay [19] is over 100 µM.

Regarding `O=C1NC(=O)C(Cc2ccccc2)(c2cccnc2)N1` (stereo unspecified), the TGI in assay [1], in [2], in assay [3], in [4], in assay [5] and in assay [6] was over 100 µM throughout. Also, the TGI in assay [7], in [8], in assay [9], in assay [10], in assay [11] and in assay [12] was over 100 µM each time. In addition, the TGI in assay [13], in assay [14], in [15], in [16], in [17] and in [18] was over 100 µM each time. In addition, in assay [19], the TGI is over 100 µM.

Take `CCOC(=O)C(SCCO)C(C(=O)OCC)n1cnc2c(N)ncnc21` (stereo unspecified): the TGI in [1] is over 100 µM; in assay [2], 20 µM; in assay [3] it was 22.2 µM; in assay [4] it was 14.7 µM; in assay [5], 14.5 µM; in assay [6] it was 19.1 µM. For the same molecule, the TGI is 35.5 µM in assay [7]; 45.4 µM in [8]; 24.7 µM in assay [9]; over 100 µM in [10]; 18.6 µM in assay [11]; 9.83 µM in assay [12]. The TGI in assay [13] was 34.3 µM; in [14], 44.1 µM; in assay [15], 31.2 µM; in assay [16], 30.2 µM; in assay [17], 5.46 µM; in [18], over 80.2 µM. Also, the TGI in assay [19] was 59.2 µM.

In the case of `O=C1C(=O)c2c(oc(=O)c3ccccc23)-c2ccccc21`, the TGI in assay [1], in assay [2], in [3], in [4], in assay [5] and in [6] was over 25 µM in each case. The TGI in assay [7], in [8], in assay [9], in [10], in [11] and in [12] was over 25 µM each time. Besides, the TGI in assay [13] was over 25 µM; in [14], over 25 µM; in [15] it was over 25 µM; in [16] it was 20.9 µM; in [17], 15 µM; in assay [18], over 25 µM. Moreover, in assay [19], the TGI is over 25 µM.

Consider `COc1ccc(OC)c2sc(N3C(=O)/C(=C/c4ccc(Cl)cc4)N=C3c3ccccc3)nc12`, for which the TGI in assay [1], in assay [2], in assay [3], in [4], in assay [5] and in [6] was over 100 µM throughout. Also, the TGI in assay [7], in [8], in assay [9], in assay [10], in assay [11] and in [12] was over 100 µM each time. In addition, the TGI in assay [13], in [14], in assay [15], in assay [16], in [17] and in assay [18] was over 100 µM throughout. The TGI in [19] was over 100 µM.

For `COc1ccc2cc(CNCCCCCCCCCCCCNCc3ccc4cc(OC)ccc4c3)ccc2c1`, the TGI is 42.2 µM in assay [1]; over 55.9 µM in assay [2]; 32.8 µM in assay [3]; over 55.4 µM in [4]; over 21.5 µM in assay [5]; 33.8 µM in assay [6]. Besides, the TGI in assay [7] was 31.8 µM; in assay [8], 39.2 µM; in assay [9] it was 38.4 µM; in assay [10] it was 32.7 µM; in [11], over 57.1 µM; in assay [12], 35.9 µM. In addition, the TGI was over 56 µM in [13]; over 54.4 µM in assay [14]; 34.3 µM in [15]; over 55.5 µM in assay [16]; 34.9 µM in assay [17]; 36.3 µM in assay [18]. The molecule also came in with a TGI in [19] of 31.7 µM.

For `Cc1cc(C)nc(NS(=O)(=O)c2ccc(NNc3c4ccccc4nc4c(C(=O)Nc5ccc(S(=O)(=O)Nc6ncccn6)cc5)cccc34)cc2)n1`, the TGI was over 100 µM in [1]; 54.3 µM in assay [2]; 39.2 µM in [3]; 71.3 µM in assay [4]; 59 µM in [5]; 48.9 µM in [6]. In addition, the TGI is 69.4 µM in [7]; over 100 µM in [8]; 83.7 µM in assay [9]; 89.9 µM in [10]; 52.5 µM in assay [11]; over 100 µM in [12]. The TGI in [13] was 65 µM; in assay [14], over 100 µM; in assay [15], 69.5 µM; in assay [16], 55.3 µM; in [17], 62.9 µM; in assay [18], 94.3 µM. The molecule further came in with a TGI in assay [19] of over 100 µM.

Consider `COc1cc(S(=O)(=O)Nc2nc(-c3ccc(N4C(=O)C(CC(=O)O)SC4c4ccccc4O)cc3)cs2)ccc1Cl` (stereo unspecified), for which the TGI in assay [1], in assay [2], in assay [3], in assay [4], in [5] and in assay [6] was over 100 µM each time. Besides, the TGI in [7], in assay [8], in assay [9], in assay [10], in [11] and in assay [12] was over 100 µM each time. The TGI in [13] was over 100 µM; in assay [14], over 100 µM; in assay [15], 86.7 µM; in assay [16], over 100 µM; in [17], 57 µM; in assay [18] it was over 100 µM. For the same molecule, the TGI in assay [19] is over 100 µM.

For `CC(C)=CCC[C@@H](C)C1=C(O)C(O)C(C)=C2N=C(c3ccccc3)C(=O)OC21` (stereo partly specified), the TGI is over 10.9 µM in assay [1]; over 25 µM in assay [2]; over 8.46 µM in assay [3]; over 25 µM in [4]; over 20.5 µM in [5]; 1.9 µM in [6]. Also, the TGI in [7] was 13.8 µM; in assay [8], 8.5 µM; in [9] it was 5.95 µM; in assay [10], 11.1 µM; in assay [11] it was over 25 µM; in [12], over 17.8 µM. The TGI in assay [13] is over 25 µM; in assay [14] it was over 25 µM; in assay [15], 6.15 µM; in [16], over 25 µM; in [17] it was 1.63 µM; in assay [18] it was over 25 µM. In assay [19], this molecule registered a TGI of 13.4 µM.

Turning to `COCC(N=CN1CCCc2ccccc2[C@@H]1CCCCl)C(C)(C)C` (stereo partly specified), the TGI in [1] turned out to be 35.1 µM; in assay [2], 10.3 µM; in assay [3], 9.48 µM; in assay [4] it was 91.4 µM; in assay [5], 12.2 µM; in assay [6], 21.1 µM. In addition, the TGI in assay [7] amounted to 24.4 µM; in [8] it was 52.9 µM; in assay [9], 32.1 µM; in assay [10] it was 70.1 µM; in assay [11] it was 49.5 µM; in assay [12], 18.3 µM. The TGI in assay [13] is over 100 µM; in [14], 68.2 µM; in assay [15] it was 21.1 µM; in assay [16], 26.4 µM; in assay [17], 8.97 µM; in [18], 7.68 µM. Besides, the TGI in assay [19] came out at 17.6 µM.

`O=C(N/N=C/c1ccc2c(c1)OCO2)Nc1ccccc1Cl`: the TGI in [1] is 6.84 µM; in assay [2] it was 5.52 µM; in [3], over 100 µM; in [4], over 100 µM; in assay [5], over 34.2 µM; in assay [6], 1.1 µM. For the same molecule, the TGI in assay [7] is 24.8 µM; in [8] it was over 100 µM; in assay [9] it was over 83.1 µM; in assay [10], over 24.9 µM; in assay [11] it was over 100 µM; in assay [12], over 39.5 µM. The TGI is over 100 µM in assay [13]; 0.501 µM in assay [14]; over 43.8 µM in [15]; 1.33 µM in [16]; over 23.1 µM in assay [17]; over 100 µM in [18]. Further, the TGI in assay [19] was 8.25 µM.

As to `Nc1nc(Cl)c(N)c(NCC2(CO)CCC2)n1`, the TGI in assay [1], in [2], in assay [3], in assay [4], in assay [5] and in assay [6] was over 100 µM throughout. In addition, the TGI in assay [7], in assay [8], in assay [9], in assay [10], in assay [11] and in [12] was over 100 µM in each case. In addition, the TGI in assay [13], in assay [14], in assay [15], in assay [16], in assay [17] and in assay [18] was over 100 µM throughout. The molecule further gave a TGI in assay [19] of over 100 µM.

The values are drawn from PubChem BioAssay (NCI).
